Measurements reported in patent US20240241108A1, “LUNG ORGANOID MODEL AND METHOD OF USE” (The Regents of the University of California, priority 2021, published 2024).

Key:
SARS-COV-2 [1] = assay: Pre-clinical drug screen in SARS-COV-2-infected lung organoid monolayers (384-well), viral E gene qPCR readout; type: cell-based; details: FIG. 3G; for viral titer (abundance of E gene in the monolayers): pre-treated for 4 hours prior to infection, assessed at 48 hours post-infection, DMSO control
Description: Using the E gene as a readout, it was determined whether lung organoid models could be used as platforms for pre-clinical drug screens. The efficacy of nucleoside analog N^4-hydroxycytidine (NHC: EIDD-parent) and its derivative pro-drug. EIDD-2801, were tested. […] Lung organoid monolayers plated in 384-wells were pre-treated for 4 hours with the compounds or DMSO, as a control, prior to infection. The monolayers were assessed at 48 hours post-infection for the abundance of E gene in the monolayers.
Densely packed organoids, collected in PBS/0.5 mM EDTA were centrifuged at 200 rcf for 5 minutes. Organoids were dissociated in 2 mL trypLE Select (Gibco, USA) per 12 wells of organoids at 37 °C for 4-5 minutes and mechanically sheared by pipetting up and down. The TrypLE was inactivated with al-to-5 trypLE to Lung Wash Media ratio. The cells were thereafter centrifuged at 300 g for 4 minutes. The supernatant was aspirated and resuspended in the cell pellet at room temperature using PneumaCult Ex-Plus Mix, with larger clumps of cells being filtered out using […] filter. The viable cells were counted and plated using PneumaCult Ex-Plus media. Cells were either plated 10^5 cells per well in a 96 well plate, or 2×10^4 cells per well in a 384 well Matrigel coated plate. The media was changed after 24 hours of incubation. After 48 hours of plating, the cells were differentiated and appeared flattened. The cells were then infected with MOI of 0.5 with SARS-COV-2. After treatment, the lung monolayers were used for RNA sequencing, immunostaining, and other functional assay.
Lung organoid-derived monolayers or primary airway epithelial cells, either in 384 well plates or in transwells, were washed twice with antibiotic-free lung wash media. […]
Assessment of SARS-COV-2 infectivity test was determined by qPCR using TaqMan assays and TaqMan Universal PCR Master Mix96.97. cDNA was amplified with gene-specific primer/probe set for the E gene and qPCR was performed with the Applied Biosystems QuantStudio 3 Real-Time PCR System. […]

SARS-COV-2 [2] = details: cited from earlier work
SARS-COV-2 [3] = details: cited from earlier work; remark: listed apart in the source

SMILES	efficacy compared with the parent compound (reduction of viral titer) (SARS-COV-2 [1]; pre-treated 4 hours, 48 hours post-infection)	viral titer (abundance of E gene in the monolayers) (SARS-COV-2 [1])	inhibition of viral replication in vitro (SARS-COV-2 [2])	inhibition of viral replication in SARS-COV-2-challenged ferrets (SARS-COV-2 [3])
CC(C)C(=O)OC[C@H]1O[C@@H](n2ccc(NO)nc2=O)[C@H](O)[C@@H]1O [EIDD-2801]	showed a better efficacy	effectively reduced the viral titer in a dose-dependent manner	inhibit viral replication	inhibit viral replication
O=c1nc(NO)ccn1[C@@H]1O[C@H](CO)[C@@H](O)[C@H]1O [NHC, N^4-hydroxycytidine]	–	effectively reduced the viral titer in a dose-dependent manner	inhibit viral replication	inhibit viral replication
